Three compounds from US20130065227A1, “METHODS OF INCREASING MACROPINOCYTOSIS IN CANCER CELLS” (priority 2010, published 2013) can be followed below.

The test system of experiment [1] is DU145 cells. The experiment in a line: Transferrin uptake (clathrin-dependent endocytosis) by flow cytometry. It counts as cell-based. Also noted: dose or concentration left out as unconfirmed. The following applies: for 30 min, transferrin-Alexa Fluor 488 for 30 min. The protocol:
(§1) FIG. 9 are graphs showing the effects of inhibitors on various endocytic pathways. DU145 or Hs27 cells were plated 18 hr before uptake analysis. (Panel A) DU145 cells were pre-treated with dynamin inhibitor, […] Dynasore (black histogram) or DMSO (gray histogram) for 30 min at 37° C. After pre-treatment, cells were treated with […] transferrin conjugated with Alexa Fluor 488 for 30 min at 37° C. (Panel B) DU145 and Hs27 cells were pre-treated with 3 mM amiloride (black histogram) or vehicle (serum-free medium, gray histogram) for 1 h at 37° C. After pre-treatment, FL-CRO was added at a concentration of 10 μM and incubated at 37° C. for 2 h. After incubation, cells were harvested and analyzed by FACS. Gray solid histogram represents unstained cells.
To confirm that uptake of AS1411 occurs by endocytosis, the involvement of the actin cytoskeleton, which has been implicated in regulating endocytic pathways, was evaluated. To this end, DU145 and Hs27 cells were pre-treated with an actin polymerization inhibitor. 5 μM cytochalasin D, and assessed for FL-AS1411 uptake by flow cytometry. […]
A general note: Flow cytometry measures light scatter and fluorescence of single cells or particles in a stream.

In experiment [2] the test system is Hs27 cells. The experiment is described as follows: Uptake of fluorophore-labeled oligonucleotides by flow cytometry. The experiment is classed as cell-based, human. On the procedure:
(§2) FIG. 1 are graphs showing that AS1411 cell internalization is an active process. Cells were plated 18 h before uptake analysis. After incubation as described, cells were washed with ice-cold PBS, incubated with 1 μg/ml 7-AAD, harvested and resuspended in 1% paraformaldehyde containing 2 μg/ml actinomycin D, then analyzed by flow cytometry. (Panel A) DU145 cells were incubated at 37° C. with fresh complete DMEM medium containing 10 μM FL-AS1411 (black line) or 10 μM FL-CRO (gray line) for the time indicated. (Panel B) DU145 cells were incubated for 2 h at 37° C. in complete or serum-free DMEM medium containing 10 μM FL-AS1411, or 10 μM FL-CRO, or no oligonucleotide. (Panel C) Various cell lines were incubated with 10 μM FL-AS1411 (black outline histogram), 10 μM FL-CRO (gray outline histogram) or without DNA (solid gray histogram) at 37° C. or 4° C. for 2 h. All experiments were repeated at least three times. Data are mean of three independent samples; bars, SE; *(p<0.05).
(§3) FIG. 2 are graphs showing that AS1411 is internalized by different endocytic mechanisms in DU145 cancer cells and in non-malignant Hs27 cells. DU145 or Hs27 cells were plated 18 h before uptake analysis. Cells were pre-treated as described with inhibitor (gray histogram) or the corresponding vehicle control (black histogram) before addition of 10 μM FL-AS1411 and incubation at 37° C. for 2 h. After incubation, cells were harvested and analyzed by flow cytometry. Pre-treatment conditions were at 37° C. with: (Panel A) 5 μM Cytochalasin D for 30 min; (Panel B) 80 μM Dynasore for 30 min; or (Panel C) 3 mM amiloride for 1 h. All experiments were repeated at least three times and representative data are shown. Solid gray histograms represent background autofluorescence of unstained cells.
as §1
To analyze uptake of the oligodeoxynucleotides or dextran-10K (macropinocytic marker) by flow cytometry, 2×10^5 cells in fresh supplemented culture medium (2.5 ml) were plated into 6-well plates for 18 h. […]

Experiment [3] concerns DU145 cells. Described as above. It counts as cell-based. On the procedure: as §2, §3
DU145 cells were transfected for 48 h without siRNA (mock, M), or with 30 nM of one of three different nucleolin siRNAs (NCL1, NCL2, NCL3) or a control siRNA (scramble, S), or contransfected with 10 nM of each nucleolin siRNAs (mix). (Panel A) Cells were lysed and total cell lyses were analyzed by Western blotting using the antibodies shown. (Panel B) Cell-surface proteins from intact transfected DU145 cells were labeled covalently with membrane-impermeable biotinylating agent. Cells were lysed, then biotinylated plasma membrane proteins were captured with streptavidin-agarose beads and analyzed by blotting with anti-nucleolin antibody (upper panel). After stripping, the membrane was reprobed with antibodies for a plasma membrane marker (anti-pan Cadherin) and a nuclear marker (anti-histone 3) to confirm the fractionation. Total lysate (Lys) was used as control. (Panel C) The medium of transfected cells was replaced by fresh complete DMEM medium containing no oligonucleotide (gray dashed histogram) or 10 μM FL-CRO (gray solid line histogram) or 10 μM FL-AS1411 (black solid line histogram) and incubated at 37° C. for 2 h. After incubation, cells were harvested and analyzed by flow cytometry.
DU145 cells were plated 18 hr before uptake analysis. Cell medium was changed with fresh complete DMEM medium containing different concentrations of FL-AS1411 (black line) or FL-CRO (gray line), and incubated at 37° C. for 2 hrs. After incubation, cells were harvested and analyzed by flow cytometry.
as §1, with “Gray solid histogram represents unstained cells.” left out

A further experiment concerns DU145. The experiment in a line: Uptake of AS1411 by macropinocytosis (MP). The experiment is classed as cell-based. The following applies: 3 mM amiloride for 1 h, then 10 μM FL-AS1411 2 h. On the procedure:
as §3
To analyze uptake of the oligodeoxynucleotides or dextran-10K (macropinocytic marker) by flow cytometry, 2×10^5 cells in fresh supplemented culture medium (2.5 ml) were plated into 6-well plates for 18 h. After complete adhesion, the cells were incubated with 5′-FAM tagged oligodeoxynucleotides or Alexa Fluor 488 tagged dextran-10K and incubated as indicated in the Description of the Drawings. Cells were washed once with ice-cold PBS, incubated with 1 μg/ml 7-amino-actinomycin D (7-AAD) for 5 min on ice or 1 μg/ml propidium iodide (PI), and washed twice with ice-cold PBS. […]

The test system of a further experiment is MCF7. The experiment is described as follows: Uptake of AS1411 by macropinocytosis (MP). It counts as cell-based. As to conditions: amiloride treatment, MCF7 cells. An excerpt: (§4) There was little effect of amiloride treatment on uptake of FL-CRO in either DU145 cancer cells or non-malignant Hs27 cells (FIG. 9B). […] These studies also confirmed the previous results that there was higher overall uptake of FL-AS1411 in Hs27 cells than in DU145 cells.
(§5) It has recently been discovered that AS1411 can stimulate macropinocytosis (MP) in cancer cells and this finding was verified by several different methods and in multiple cancer cell lines (Table 1).

The test system of a further experiment is MDA-MB-231. The experiment in a line: Uptake of AS1411 by macropinocytosis (MP). The experiment is classed as cell-based. As to conditions: amiloride treatment, MDA-MB-231 cells.
Text: as §4, §5

Experiment [4] relates to Hs27 cells. The experiment is described as follows: Confocal microscopy localization and co-localization. As to conditions: 10 μM, 0.2 mg/ml dextran-10K, 2 h at 37° C. It counts as cell-based, human. On the procedure:
(§6) FIG. 3 are photographs showing that AS1411 co-localizes with the macropinocytic marker, dextran. DU145 or Hs27 cells were incubated with the reagents indicated, then washed and fixed. Nuclei were stained with DAPI (blue). The distribution of markers was visualized by confocal microscopy and fluorescent images were overlaid to determine co-localization as indicated by the yellow color. (Panel A) 10 μM AS1411 labeled with Alexa Fluor 488 (green) and 0.2 mg/ml dextran-10K, macropinocytic marker, labeled with Alexa Fluor 594 (red) for 2 h at 37° C. (Panel B) Experiments similar to those in Panel A but using FL-CRO in place of FL-AS1411. (Panel C) Cells incubated with 5 μg/ml transferrin labeled with Alexa Fluor 488 (green) and 0.2 mg/ml dextran-10K labeled with Alexa Fluor 594 (red) for 30 min at 37° C. (Panel D) DU145 cells incubated with 5 μg/ml transferrin labeled with Alexa Fluor 594 (red) and 10 μM AS1411 labeled with Alexa Fluor 488 (green) for 30 min at 37° C. Scale bars, 10 μm.
Cells (4×10^4) in fresh supplemented culture medium were plated on 18 mm diameter glass cover slips for 18 h. The media was removed and replaced with serum-free medium containing 10 μM oligodeoxynucleotide, dextran-10K, or transferrin and incubated as describe in the Description of the Drawings. […]

Experiment [5] relates to cancer cells (DU145, HeLa, MDA-MB-231) and non-malignant Hs27 skin fibroblasts. The experiment in a line: Temperature-dependence of oligonucleotide uptake by flow cytometry. It counts as cell-based. The following applies: 10 μM, 37° C. or 4° C. for 2 h, all cell types. On the procedure: as §2, with “*(p<0.05). […]” for “*(p<0.05).”
To determine whether AS1411 uptake occurs through an active uptake process, the temperature-dependence of AS1411 uptake in cancer cells (DU145, HeLa, MDA-MB-231) and non-malignant Hs27 skin fibroblasts was evaluated using flow cytometry. […]

For experiment [6], the system named is DU145 cells. The experiment is described as follows: Confocal microscopy localization and co-localization. It counts as cell-based. The protocol:
as §6
Cells (4×10^4) in fresh supplemented culture medium were plated on 18 mm diameter glass cover slips for 18 h. The media was removed and replaced with serum-free medium containing 10 μM oligodeoxynucleotide, dextran-10K, or transferrin and incubated as describe in the Description of the Drawings. After incubation, cells were washed 3 times with ice-cold PBS, fixed in 4% paraformaldehyde in PBS for 30 min at room temperature, and washed three times with PBS. After washing, the cover slips were mounted on glass slides with ProLong Antifade (Molecular Probes) according to the manufacturer's directions to inhibit photobleaching. Immunofluorescence was documented with an LSM 510 inverted confocal laser-scanning microscope (Carl Zeiss, Oberkochen, Germany) equipped with an Omnichrome argon-krypton laser. Images were obtained with a Zeiss Plan-Apo 63× oil immersion objective (1.4 NA).

Where [7] appears, read: 80 μM dynasore, then 10 μM FL-AS1411 2 h.
The mark [8] stands for this setting: 3 mM amiloride for 1 h, then 10 μM FL-CRO 2 h.
Setting [9] is: 10 μM, 37° C., complete DMEM medium.

As for `O=C(N/N=C/c1ccc(O)c(O)c1)c1cc2ccccc2cc1O` [dynasore], the “effect of pre-treatment on uptake of transferrin” value in the experiment with DU145 cells [1] is on record as “inhibited”. The “effect of pre-treatment on FL-AS1411 uptake” value in the experiment on Hs27 cells [2] (setting [7]) is “decreased the uptake of AS1411”; with DU145 cells [3] (setting [7]), “slightly increased the uptake of FL-AS1411”.
In the case of `N=C(N)NC(=O)c1nc(Cl)c(N)nc1N` [amiloride, reference compound], in the experiment on DU145, the “effect of pre-treatment on FL-AS1411 uptake” value is on record as “reduction in FL-AS1411 uptake”. Also, the “effect of treatment on uptake of FL-CRO” value with Hs27 cells [2] (setting [8]) and in the experiment on DU145 cells [3] (setting [8]) was “little effect” throughout. Moreover, the “effect of treatment on AS1411 uptake” value with MCF7 and in the experiment with MDA-MB-231 was “affected the AS1411 uptake” in each case.
In the case of “5′-Fluor-d(TTTGGTGGTGGTGGTTGTGGTGGTGGTGG) [FL-AS1411]”, the “co-localization with the macropinocytic marker, dextran” value in the experiment on Hs27 cells [4] is on record as “not in Hs27 cells”. Further, the “temperature dependence of uptake” value in experiment [5] is given as “strong temperature dependence”. For the same compound, in the experiment on DU145 cells [6] (10 μM, 0.2 mg/ml dextran-10K, 2 h at 37° C.), the “co-localization with the macropinocytic marker, dextran” value is reported as “strongly co-localized”. For the same compound, the subcellular localization entry with DU145 cells [6] (confocal microscopy, cancer and non-malignant cells) is “localized in confined structures in the cytoplasm”. In the experiment with DU145 cells [3] (setting [9]), the “earliest time at which uptake was detected” value was determined as 5 min and the “time after which uptake is decreasing” value is > 8 h. Moreover, the “serum dependence of uptake” value in the experiment with DU145 cells [3] (10 μM, 2 h at 37° C., complete or serum-free DMEM medium) is reported as “independent of the presence of serum”.
